# From ChEMBL document CHEMBL5104234, “Targeted protein degradation using the lysosomal pathway” (RSC Med Chem, 2022)
# Legend:
# [1] = Drug uptake in human HepG2 cells with ASGPR overexpression assessed as fold increase in intracellular uptake; assay type: ADME, cell-based
# [2] = Cytoprotective activity against Down syndrome patient-derived human Detroit 532 cells assessed as increase in mitochondrial membrane potential at 10 uM incubated for 3 days by JC-1 staining based fluorescence microscopy; assay type: functional; conditions: time 3 day
# Mus musculus = experiment: Antidiabetic activity in high fat diet-induced obese db/db mouse assessed as reduction in total lipid concentration at 30 mg/kg,ip administered for 2 weeks; assay type: functional; set-up: scale not given: the % may be the effect or the level left
Structure (SMILES),fold change (FC) [1],Activity (Mus musculus) [%],further results
CC(=O)N[C@@H]1[C@@H](O)[C@@H](O)[C@@H](CO)O[C@@H]1O,16,–,–
CC(=O)N[C@@H](CSc1nc2c(=O)[nH]c(N)nc2n1Cc1ccc(F)cc1)C(=O)NCCCOCCOCCOCCCCC(=O)C(=O)c1c(-c2ccccc2)[nH]c2ccccc12,–,–,Activity [2]: 50%
N[C@@H](COC1O[C@H](CCP(=O)(O)O)[C@@H](O)[C@H](O)[C@@H]1O)C(=O)O (stereo not given in full),2,–,–
O=C1C(=Cc2cc(Br)c(O)c(Br)c2)c2cc(I)ccc2N1CCCCCCCCCCCOc1ccc2ccccc2c1/N=N/c1ccc(/N=N/c2ccccc2)cc1,–,62,–
O=c1cc(-c2ccccc2)c2c(OCCCCCCCCCCOc3ccc4ccccc4c3/N=N/c3ccc(/N=N/c4ccccc4)cc3)cc(O)cc2o1,–,62,–
